Data from patent US20240382508A1, “REGENERATIVE AGENT FOR BONE TISSUE AND LUNG TISSUE, AND PHARMACEUTICAL COMPOSITION FOR REGENERATING BONE TISSUE AND LUNG TISSUE” (NIIGATA UNIVERSITY, priority 2021, published 2024).

Assays:
DEL-1 = conditions: versus resolvin D1 or DHEA; Non-Patent Document 1; cited from earlier work
[1] = tested on: bone defects in the jawbones; assay: jawbone defect regeneration in cynomolgus monkeys (microCT); assay type: in vivo; conditions: 200 μg at bone defect site, one month
Description: Bone defects with a diameter of 2 cm and a depth of 2 cm were artificially produced in the jawbones of young (2 years old) and aged (10 years old) cynomolgus monkeys by using a round steel bar. Next, 200 μg of each of erythromycin, clarithromycin, and azithromycin were added to the bone defect sites. As controls, a non-administered group and a group administered with 200 μg of REGROTH (registered trademark), which has been approved as a bone regenerative agent, were also prepared. The amount of bone regeneration after one month from the administration of each drug was checked by using microCT. In FIG. 10, the symbol * indicates p<0.01.

[2] = tested on: iCell mesenchymal stem cells; assay: bone nodule measurement in mesenchymal stem cells induced from human iPS cells; assay type: cell-based; conditions: 10 μg/mL for each; 15 days; bone differentiation medium
Description: iCell (registered trademark) mesenchymal stem cells (iCell (registered trademark) MSCs) (#01279, manufactured by Fujifilm Corporation) (1×10^4 cells/mL) obtained by inducing human mesenchymal stem cells from iPS cells, were cultured in α-MEM and a bone differentiation medium (containing 50 μg/mL ascorbic acid and 10 mM β-glycerol 2-phosphate). Ethanol (final concentration 0.1% by mass), or erythromycin, clarithromycin, or azithromycin (10 μg/mL for each) was added to the medium. The medium was exchanged every 3 days, and after 15 days, the cells were stained with Alizarin red S, followed by performing of bone nodule measurement. The results are shown in FIG. 18 (stained images) and FIG. 19 (graph showing the proportion of bone nodules). In FIG. 18 and FIG. 19, the ethanol (final concentration 0.1% by mass)-added group is a control. In FIG. 19, the symbol * indicates p≤0.05, the symbol ** indicates p≤0.01, the symbol *** indicates p≤0.001, and the symbol **** indicates p≤0.0001.

[3] = tested on: experimental periodontitis model mice; assay: bone regeneration in experimental periodontitis model mice (teeth ligated with silk threads); assay type: in vivo, mouse
Text: Experimental periodontitis model mice in which teeth are ligated with silk threads are useful models for inflammatory bone destruction research because inflammations and bone resorption occur in about 10 days after the ligation. The above-described experimental periodontitis models were produced by using 6-week-old wild-type mice (N=8, male C57BL/6N mice, manufactured by CLEA Japan, Inc.), 22-month-old aging mice (N=4, male C57BL/6N mice, manufactured by CLEA Japan, Inc.), and 6-week-old DEL-1-deficient mice (N=8, male C57BL/6N mice (manufactured by CLEA Japan, Inc.), a method for producing the deficient mice was as described in Non Patent Document 1), the silk threads were removed 10 days after the ligation, a remission phase of inflammation of 5 days passed, and in the wild-type mice, new bone formation was recognized at the site of resorbed bone defect while no repair mechanism of the periodontal tissue by DEL-1 was recognized.
The experimental periodontitis models described in Example 1 were produced by using 6-week-old wild-type mice (N=8, male C57BL/6N mice, manufactured by CLEA Japan, Inc.), 22-month-old aging mice (N=4, male C57BL/6N mice, manufactured by CLEA Japan, Inc.), and 6-week-old DEL-1-deficient mice (N=8, male C57BL/6N mice (manufactured by CLEA Japan, Inc.), a method for producing the deficient mice was as described in Non Patent Document 1), the silk threads were removed 10 days after the ligation to experimentally induce periodontitis, subsequently a bone regeneration period of 5 days was provided, and then the amount of regeneration of resorbed bone was measured using a stereomicroscope and image measurement software (manufactured by Nikon Corporation). Erythromycin (10 mg/kg) and ethanol (final concentration 0.1% by mass) were intraperitoneally administered once after the removal of the silk threads. In addition, DEL-1 (1 μg) and Fc control (0.84 μg) were directly inoculated into the gingiva after the removal of the silk threads. The results are shown in FIG. 3 (left: wild-type mice, right: DEL-1-deficient mice) and FIG. 4 (aging mice).
Next, the experimental periodontitis model described in Example 1 was produced by using 22-month-old aging mice (N=4, male C57BL/6N mouse, manufactured by CLEA Japan, Inc.), the silk threads were removed 10 days after the ligation to experimentally induce periodontitis, subsequently a bone regeneration period of 5 days was provided, and the amount of regeneration of resorbed bone was measured using a stereomicroscope and image measurement software (manufactured by Nikon Corporation). Erythromycin (ERM) (20 mg/kg), azithromycin (AZM) (20 mg/kg), clarithromycin (CLM) (20 mg/kg), and ethanol (final concentration 0.1% by mass) as a control were intraperitoneally administered once after the removal of the silk threads. […] In addition, there was no difference in the amount of bone regeneration between the macrolide antimicrobial agent-administered groups.

SMILES: CC[C@H]1OC(=O)[C@H](C)[C@@H](O[C@H]2C[C@@](C)(OC)[C@@H](O)[C@H](C)O2)[C@H](C)[C@@H](O[C@@H]2O[C@H](C)C[C@H](N(C)C)[C@H]2O)[C@](C)(O)C[C@@H](C)C(=O)[C@H](C)[C@@H](O)[C@]1(C)O [erythromycin]
- DEL-1 induction potency relative to resolvin D1 or DHEA (DEL-1): about three
- bone regeneration effect (FIG. 10) ([1]; aged (10 years old) cynomolgus monkeys): a bone regeneration effect was recognized
- bone regeneration effect (FIG. 10) ([1]; young (2 years old) cynomolgus monkeys): a bone regeneration effect was recognized
- formation of bone nodules (FIG. 18, FIG. 19) [2]: the formation of bone nodules was recognized
- bone regeneration (FIG. 3) ([3]; 6-week-old wild-type mice, erythromycin 10 mg/kg intraperitoneally once, 5 days regeneration period): bone regeneration was recognized irrespective of the presence or absence of the administration of erythromycin
- bone regeneration (FIG. 9) ([3]; 22-month-old aging mice, 20 mg/kg intraperitoneally once, 5 days regeneration period): bone regeneration was recognized
- bone regeneration (FIG. 4) ([3]; 22-month-old aging mice, erythromycin 10 mg/kg intraperitoneally once or DEL-1 1 μg into the gingiva, 5 days): bone regeneration was recognized
- bone regeneration (FIG. 3) ([3]; DEL-1-deficient mice, erythromycin 10 mg/kg intraperitoneally once or DEL-1 1 μg into the gingiva, 5 days): bone regeneration was not recognized
